Legend:
[1] = system: murine model of collagenase-induced ICH; assay: NeuN neuronal survival, stereology after ICH; format: in vivo, C57BL/6J mice; conditions: ipsilateral, 33 days post ICH, 0.05 mg/kg i.v. at 4, 8 and 24 hours, n = 7/group
Source text: Experiment 6. Neuronal survival. The hippocampus has been associated with spatial learning and memory. To determine whether histological outcome correlates with functional outcomes, neuronal density was quantified in the hippocampus and striatum of the mice (n = 7/group) in experiment 4 by stereology at 33 days post-ICH following MWM testing.
(§1) Intrastriatal collagenase injection was used to induce ICH in mice, as previously described. Briefly, the trachea was intubated after anesthesia induction with 4.6% isoflurane, and the lungs were mechanically ventilated with 1.5% isoflurane in a mixture of 30%/70% O2/N2. Rectal temperature was maintained at 37 °C ± 0.2 °C by circulating warm water in an underbody waterbed. The animal’s head was secured in a stereotactic frame, and a midline scalp incision was made. After exposing the skull, a burr hole was created 2.2 mm left lateral to bregma, and a 0.5 μL syringe needle (Hamilton, Reno, NV, USA) was advanced to a depth of 3 mm from cortex. Type IV-S Clostridial collagenase (Sigma, St. Louis, MO, USA) was injected over 2 minutes (0.075 U in 0.4 μL normal saline). After closing the incision, animals were allowed to recover spontaneous ventilation, and were then extubated and given free access to food and water.
CN-105 (Ac-VSRRR-amide) was synthesized by Polypeptide Inc. (San Diego, CA) to a purity of >99%, and was dissolved in normal saline. Using a murine model of traumatic brain injury, 0.05 mg/kg CN-105 was previously found to be the lowest dose that improved functional performance after injury (data not shown). Here, therefore, 100 μL 0.05 mg/kg CN-105 in saline, or vehicle, was administered via intravenous tail vein injection 3 times at pre-specified timepoints after ICH. Animals were gently restrained by a rodent restrainer (Harvard Apparatus, Holliston, MA) during each administration.
(§2) After anesthetic induction, mice underwent transcardial perfusion with 30 mL normal saline. […] Cells were counted using a Nikon 218912 light microscope interfaced with the StereoInvestigator software package (MicroBrightField, Williston, VT, USA). […]

[2] = system: murine model of collagenase-induced ICH; assay: Histological hemorrhage volume (H&E staining) after ICH; format: in vivo, C57BL/6J mice; conditions: 0.05 mg/kg i.v. tail vein at 2, 6 and 24 hours post-ICH; saline 7.97 ± 0.97, p = 0.66; mean ± standard error, n = 3/group
Method: (§3) Experiment 2. Hematoma volume. Hemorrhage volume was assessed by magnetic resonance imaging (MRI) at 2 hours post ICH (before treatment) and 24 hours post ICH. 3 saline- and 3 CN-105-treated animals were perfused at 24 hours post ICH, and brain hematoxylin and eosin (H&E) staining was performed. CN-105 or saline was given by tail vein injection at 2, 6, and 24 hours post-ICH.
Intrastriatal collagenase injection was used to induce ICH in mice, as previously described. Briefly, the trachea was intubated after anesthesia induction with 4.6% isoflurane, and the lungs were mechanically ventilated with 1.5% isoflurane in a mixture of 30%/70% O2/N2. Rectal temperature was maintained at 37 °C ± 0.2 °C by circulating warm water in an underbody waterbed. The animal’s head was secured in a stereotactic frame, and a midline scalp incision was made. […]
Histological hematoma volume was measured at 24 hours after injury to coincide with maximum hematoma expansion. […] Lesion volume was measured by digitally sampling stained sections with an image analyzer (M2 Turnkey System, Imaging Research, Inc., St. Catharines, Ontario, Canada). Lesion volumes (mm^3) were computed as running sums of lesion area multiplied by the known interval between sections (400 μm) over the extent of the lesion, and expressed as an orthogonal projection.

[3] = system: murine model of collagenase-induced ICH; assay: Hemorrhage volume by SWI MRI after collagenase-induced ICH; format: in vivo, C57BL/6J mice; conditions: mean ± standard error, n = 3–4/group
Method: as §3
as §1, with “water. […]” for “water.”

[4] = system: murine model of collagenase-induced ICH; assay: Rotarod testing (vestibulomotor function) after ICH; format: in vivo, C57BL/6J mice; conditions: Days 1–5 after ICH; 0.05 mg/kg i.v. at 4, 8 and 24 hours post ICH; p = 0.0435; n = 14/group
Method: (§4) Experiment 4. Neurobehavioral assessment. Animals were randomized to vehicle (n = 14) or CN-105 (n = 14) groups, and evaluated for neurobehavioral function (neuroscore), vestibulomotor function (rotarod), and spatial learning (MWM). Mice received tail vein injections of vehicle or CN105 at 4, 8, and 24 hours post ICH.
as §1, with “After closing the incision, animals were allowed to recover spontaneous ventilation, and were then extubated and given free access to food and water.” left out
An automated rotarod (Ugo Basile, Comerio, Italy) was used to assess the effects of therapeutic intervention on vestibulomotor function. […] The average time lapse to fall from the rotating cylinder in the second set of trials was recorded as baseline latency. […] Average latency to fall from the rod was recorded.

[5] = system: murine model of collagenase-induced ICH; assay: Brain water content (cerebral edema) after ICH; format: in vivo, C57BL/6J mice; conditions: 24 hours after injury, 0.05 mg/kg i.v. at 2, 6 and 24 hours post ICH, mean ± standard error, n = 6–8/group
Method: Experiment 3. Brain water content. Brain water content was assessed at 24 hours post ICH in 8 saline- and 8 CN-105-treated animals. CN-105 or saline was given by tail vein injection at 2, 6, and 24 hours post ICH. Two animals randomized to CN-105 died at 4 and 6 hours post-ICH, and were excluded from further analyses.
as §1, with “After closing the incision, animals were allowed to recover spontaneous ventilation, and were then extubated and given free access to food and water.” left out
Mice were anesthetized and euthanized at 24 hours after ICH to coincide with the point of maximum inflammatory changes. […] Cerebral edema was expressed as water content, calculated as a percentage of wet weight ([wet weight - dry weight]/[wet weight] x 100).

[6] = system: murine model of collagenase-induced ICH; assay: F4/80 microglial staining and stereology after ICH; format: in vivo, C57BL/6J mice; conditions: 5 days after ICH; 0.05 mg/kg i.v. at 4, 8 and 24 hours post ICH; vehicle 14593 ± 116, p = 0.003; mean ± standard error, n = 3–4
Method: Experiment 5. Microglial staining. A separate cohort of animals was randomized to vehicle (n = 4) or CN-105 (n = 4) groups and received tail vein injections at 4, 8, and 24 hours post ICH. Immunohistochemical microglial staining was performed and gliosis was quantified by stereology. One mice in vehicle group died within 1 day after injury and was excluded.
as §1, with “After closing the incision, animals were allowed to recover spontaneous ventilation, and were then extubated and given free access to food and water.” left out
as §2

[7] = system: murine model of collagenase-induced ICH; assay: Morris water maze testing after ICH; format: in vivo, C57BL/6J mice; conditions: Days 29–32 after ICH, 0.05 mg/kg i.v. at 4, 8 and 24 hours post ICH, n = 14/group
Method: as §4
as §1, with “After closing the incision, animals were allowed to recover spontaneous ventilation, and were then extubated and given free access to food and water.” left out
The MWM[20] was used to assess the effects of therapeutic intervention on spatial learning and memory. […] Latency to find the platform was recorded by a computerized video tracking system (KeilSoft LLC, Chapel Hill, NC).

[8] = CN-105 pharmacokinetics in brain and plasma (LC/MS); format: in vivo; conditions: mice
Source text: One rationale for creating the smaller apoE mimetic peptides was to enhance CNS penetration and possibility of noninvasive mechanisms of delivery (for example, intranasal). To define pharmacokinetic parameters, we performed initial non-GLP studies in mice using stable radioisotope labeled CN-105 peptide (MW of heavy CN-105 was 362.7 vs. 357.7). […] The total CNS exposure was 44%; of note, this is approximately 5 fold higher than prior apoE based mimetic peptides.
Experiment 1. CN-105 pharmacokinetics in Brain and Plasma. The concentration of CN-105 was determined at 1, 3, 10, 15, 30 and 60 minutes (n = 5/time point) post injection using LC/MS.
A protocol was developed in collaboration with the Duke University Core Proteomics and Metabolomics Shared Resource using LC/MS on a high-resolution accurate-mass instrument. […] After extraction, samples were dried down in Speed Vac and reconstituted in 25 uL of 1% ACN/0.1% TFA/0.02% HFBA and analyzed using a nanoAcquity LC (Waters) coupled to a Synapt G2 Q-ToF (Waters). Quantitative data was extracted as selected ion chromatograms for both the native ((M + 2H)^2+at m/z 357.7 and heavy-labeled form CN-105 at m/z 362.7). Quantitation was accomplished by using a ratio of the peak area of the analyte and internal standard which was fit to a 7-point calibration curve (plasma R^2 = 0.997 and brain R^2 = 0.999).

[9] = system: murine model of collagenase-induced ICH; assay: Neuroseverity score after ICH; format: in vivo, C57BL/6J mice; conditions: 0.05 mg/kg i.v. at 4, 8 and 24 hours post ICH; p = 0.12; n = 14/group
Method: as §4, §1
CN-105 (Ac-VSRRR-amide) was synthesized by Polypeptide Inc. (San Diego, CA) to a purity of >99%, and was dissolved in normal saline. […]

Ac-VSRRR-NH2 [CN-105, Ac-VSRRR-amide]
NeuN-positive cell numbers, striatum ([1]; vehicle 25142 ± 5777, p = 0.27): 21816 ± 5073 cells/mm^3 | NeuN-positive cell numbers, dentate gyrus polymorphic region ([1]; vehicle 34919 ± 9378, p = 0.16): 42109 ± 8439 cells/mm^3 | NeuN-positive cell numbers, CA3 region ([1]; vehicle 188719 ± 4780, p = 0.009): 225773 ± 10841 cells/mm^3 | hemorrhage volume by H&E staining at 24 hours after ICH [2]: 8.43 ± 0.15 mm^3 | hemorrhage volume by SWI MRI at 24 hours post ICH ([3]; 0.05 mg/kg i.v. tail vein at 2, 6 and 24 hours post-ICH, saline 10.77 ± 1.70, p = 0.82): 10.14 ± 1.92 mm^3 | hematoma volume by MRI at 2 hours after ICH ([3]; 2 hours after ICH induction, prior to treatment (baseline of the CN-105 group)): 9.93 ± 1.88 mm^3 | rotarod motor functional recovery versus vehicle [4]: significantly improved motor functional recovery | brain water content, contralateral hemisphere ([5]; p = 0.64): 78.70 ± 0.41% | brain water content, injured hemisphere ([5]; vehicle 80.67 ± 0.26, p = 0.029): 79.57 ± 0.38% | number of F4/80-positive cells in the ipsilateral hippocampi [6]: 9327 ± 838 cells/mm^3 | Morris water maze escape latencies versus vehicle ([7]; Day x Group p = 0.02): significantly lower latencies | Morris water maze learning curves (learning slopes) versus vehicle ([7]; p = 0.01): significantly steeper learning curves | AUC0–60 in brain ([8]; brain homogenate (urea in buffer), 0-60 minutes post injection, n = 5/time point, LC/MS): 548 fmol·min/µL | total CNS exposure ([8]; brain versus plasma AUC0–60): 44% | AUC0–60 in plasma ([8]; plasma, 0-60 minutes post injection, n = 5/time point, LC/MS): 1253 fmol·min/µL | half-life ([8]; mouse, non-GLP study, stable isotope labeled CN-105, plasma sampled 1-60 minutes post injection, n = 5/time point, LC/MS, read-out: terminal plasma half-life): 27 min | neuroseverity scores, Day 1 to Day 5 after ICH versus vehicle [9]: mild but not significant improvement

From PMC5054364, “Neuroprotective pentapeptide CN-105 improves functional and histological outcomes in a murine model of intracerebral hemorrhage” (Scientific Reports, 2016)
